Where two headings read alike, the source gives them in different places.
Legend:
[1] = Steady state brain to plasma distribution after intravenous administration; format: in vivo, Sprague-Dawley rats; settings: rat; for fraction of compound in the brain tissue: intravenous, steady state
Procedure: The compounds (2.5 mg/kg) were dissolved in 5% glucose solution containing polyoxyethylene castor oil (2.17%), 1,2-propanediol (0.56%), ethanol (0.75%), and medium chain triglycerides (0.48%) prior to intravenous administration to the Sprague-Dawley rats (n = 3), with an initial push of 0.3 mL at a speed of 75 mL/h, followed by 2.5 mL/h for 40 min. Retro-orbital blood samples (∼250 μL) were collected at defined time-points (0, 10, 15, 20, 25, 30, 35, and 40 min after dosing). The rats were then euthanized by decapitation, the brain and plasma samples were collected, and then stored at -80°C for subsequent assay. The plasma samples and whole rat brain, which had been homogenized with five volumes (v/w) of physiological saline on ice, were extracted by protein precipitation and analyzed using liquid chromatography-mass spectrometry/mass spectrometry, as previously reported ([Fulp et al., 2012]). The steady state Kp-value for each test compound was calculated and used as an index of brain penetration.

human CB1R [2] = molecular target: T1, human CB1R (Homo sapiens, UniProt P21554); assay: Intracellular cAMP assay in CHO-hCB1 cells; format: cell-based; design: host or cells: CHO (CHO-hCB1R)
Procedure: (§1) The functional antagonism of the response to a CB1R agonist was previously detected in the CHO-hCB1R and CHO-hCB2R cell lines ([Chen et al., 2010], [2011]). Intracellular cAMP was analyzed in these cells using the LANCE cAMP 384 kit (AD0262, PerkinElmer, San Jose, CA, United States) following exposure to the vehicle or different concentrations of the test compounds (individually or combined) in the presence of a phosphodiesterase inhibitor (2.5 μmol/L 3-isobutyl-1-methylxanthine) for 30 min. The cAMP level detected in the vehicle-treated cells was set as 1, and the levels detected in the treated cells were expressed as fold changes compared to the control level.

human CB2R [3] = molecular target: T2, human CB2R (Homo sapiens, UniProt P34972); assay: Receptor internalization (redistribution) assay in EGFP-CB2_U2OS cells; format: cell-based; settings: read-out: IC50 CB2R, antagonism of WIN 55,212-2-induced internalization
Text: (§2) Commercial enhanced green fluorescent protein (EGFP)-CB1/CB2_U2OS cells specifically designed to screen CB1R/CB2R agonists or antagonists (Thermo Fisher Bioimage ApS, Soeborg, Denmark) were used to examine the antagonist activity and selectivity of TXX-522 for these CBR subtypes. […] Based on a previously described method ([Chen et al., 2011]), the regular EGFP-CB1/CB2_U2OS cell culture medium was replaced with F12 culture medium containing 1 μmol/L Hoechst 33342 (Invitrogen, OR, United States) before each experiment, and incubated for 20 min at 37°C. […] Dimethyl sulfoxide (DMSO, 0.1%) was used as the vehicle control. After further incubation for 2 h at 37°C, images of the cells were acquired using the IN Cell Analyzer 2000 (GE Healthcare, NJ, United States; 20× objective) and analyzed using the Granularity Analysis Module of the IN Cell. The inhibition ratio of each tested compound was expressed as percentage inhibition of the internalization induced by the reference CB1R/CB2R agonist, WIN 55,212-2. […] The results were obtained from three independent experiments each performed in triplicate.

human CB1R [4] = molecular target: T1, human CB1R; format: cell-based
Text: as §2

DIO Kunming mice = assay: Preliminary screening test in DIO Kunming mice; format: in vivo; settings: 3-week treatment, 20 mg/kg, data not shown
Text: Finally, we further evaluated the in vivo pharmacodynamic effects of TXX-522 in a commonly used mouse model of obesity.

rat hippocampal neurons = assay: Fluoro-3 AM Ca2+ imaging in hippocampal neurons; format: cell-based; settings: 10 nmol/L to 10 μmol/L; WIN 55,212-2 1 μmol/L; concentration-dependent
Procedure: Hippocampal neurons were prepared from neonatal rats as described previously and intracellular Ca^2+ levels ([Ca^2+]i) were investigated ([Chen et al., 2010]). […] WIN 55,212-2 (1 μmol/L) was added 1 min later. The fluorescence was monitored and imaged using the IN Cell Analyzer 1000 and analyzed using the Object Intensity Analysis Module of IN Cell. The [Ca^2+]i time courses were monitored by recording the relative fluorescence intensity per cell vs. time.

C57BL/6 mice [5] = assay: Acute food intake (appetite) in fasted mice; format: in vivo; settings: fasted C57BL/6 mice, oral; TXX-522 20 and 60 mg/kg, SR141716A 10 mg/kg; 3 h intake
Procedure: Mice (8-week-old) were maintained singly for 7 days with ad libitum access to a standard diet before testing. […] At 30 min post treatment, the mice were allowed access to rodent chow, and their food intake was measured for the subsequent 3 h.

human CB1R [6] = molecular target: T1, human CB1R; format: binding; design: host or cells: CHO (CHO-hCB1R)
Procedure: (§3) The affinities of TXX-522 for the human CB1R and CB2R receptor were analyzed using Cerep cooperation (Celle l’Evescault, France) using stably transfected CHO cells (CHO-hCB1R and CHO-hCB2R, respectively) and a previously reported competitive binding assay ([Munro et al., 1993]; [Chen et al., 2011]). Non-specific binding was determined in the presence of 10 μmol/L non-radioactive WIN 55,212-2. […] Each competitive binding inhibition curve was generated using data pooled from three independent experiments each conducted in duplicate.

human CB2R [7] = molecular target: T2, human CB2R; assay: Competitive radioligand binding assay, CHO-hCB2R; design: host or cells: CHO (CHO-hCB2R); settings: CHO-hCB2R cells; read-out: IC50, CB2 receptor competitive binding
Procedure: as §3

human CB2R [8] = molecular target: T2, human CB2R; assay: Intracellular cAMP assay in CHO-hCB2 cells; format: cell-based; design: host or cells: CHO (CHO-hCB2R); settings: even at 10 μmol/L
Procedure: as §1

C57BL/6 mice [9] = assay: WIN 55,212-2-induced hypothermia / body temperature; format: in vivo, C57BL/6J mice; settings: for effect of compound alone on body temperature: TXX-522 alone, data not shown, WIN 55,212-2 3 mg/kg i.p.; for effect on WIN 55,212-2-induced hypothermia: oral, 1 h before WIN 55,212-2 3 mg/kg i.p., SR141716A 10 mg/kg, TXX-522 20 or 60 mg/kg, 30 min after WIN
Procedure: After a 7-day acclimation, body weight-matched male C57BL/6J mice (8-week-old) were randomly sorted into four different groups (n = 5 mice/group). […] The rectal temperature was monitored using a rectal probe coupled to a digital thermometer before and 30 min after treatment with WIN 55,212-2.

DIO C57BL/6 mice = assay: Anti-obesity study in DIO C57BL/6 mice; format: in vivo; settings: for effect on food intake of DIO mice: 1st week of administration; for effect on fasting blood glucose and insulin levels: overnight-fasted; for effect on serum triglyceride and total cholesterol: end of treatment, SR141716A 5 mg/kg, TXX-522 10 mg/kg; for onset of statistically significant body weight difference / effect on body weight of DIO mice: oral gavage daily 4 weeks; for effect on body weight of DIO mice: SR141716A 5 mg/kg/day
Procedure: Male C57BL/6J mice (6-week-old) were maintained on a 12-h light/dark cycle at a controlled temperature (22 ± 1°C) and were fed a high-fat diet (45% fat, 18% protein, and 37% carbohydrate) for 20 weeks to establish the DIO mouse model ([Chen et al., 2010], [2011]). Age-matched standard diet-fed lean mice were used as the normal control group. […] Individual body weights and cage food consumption were measured daily. Oral glucose tolerance testing was performed on treatment day 23 on overnight-fasted mice while the serum glucose and insulin levels were assayed as described previously ([Chen et al., 2013]). At the end of the treatment period, the mice were fasted overnight prior to collecting blood samples for the analysis of serum triglycerides and total cholesterol levels as described previously ([Xie et al., 2015]). Furthermore, the intra-abdominal white adipose tissues (epididymal, lumbar, and perirenal) were removed and weighed.

DIO mice and rats = tested on: DIO mice and rats; design: method as in Alonso et al., 2012; Silvestri and Di Marzo, 2012; settings: ref Alonso et al., 2012, Silvestri and Di Marzo; cited from earlier work
[10] = design: method as in earlier work; settings: ref Chorvat et al., 2012, Klumpers et al., 2013, Knani et al., 2016, Lu et al.; cited from earlier work
[11] = 2.5 mg/kg intravenous infusion, 40 min

T2 sequence (P34972 whole entry): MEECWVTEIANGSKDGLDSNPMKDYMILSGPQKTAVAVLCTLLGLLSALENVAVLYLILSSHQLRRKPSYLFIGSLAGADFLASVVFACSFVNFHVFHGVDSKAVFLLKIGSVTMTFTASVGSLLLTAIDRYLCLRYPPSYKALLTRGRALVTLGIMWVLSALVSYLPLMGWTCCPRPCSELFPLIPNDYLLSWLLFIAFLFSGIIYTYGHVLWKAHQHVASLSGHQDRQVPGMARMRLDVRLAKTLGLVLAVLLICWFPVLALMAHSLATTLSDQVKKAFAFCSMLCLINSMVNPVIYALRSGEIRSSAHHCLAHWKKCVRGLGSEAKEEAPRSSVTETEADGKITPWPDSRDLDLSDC
T1 sequence (P21554 whole entry): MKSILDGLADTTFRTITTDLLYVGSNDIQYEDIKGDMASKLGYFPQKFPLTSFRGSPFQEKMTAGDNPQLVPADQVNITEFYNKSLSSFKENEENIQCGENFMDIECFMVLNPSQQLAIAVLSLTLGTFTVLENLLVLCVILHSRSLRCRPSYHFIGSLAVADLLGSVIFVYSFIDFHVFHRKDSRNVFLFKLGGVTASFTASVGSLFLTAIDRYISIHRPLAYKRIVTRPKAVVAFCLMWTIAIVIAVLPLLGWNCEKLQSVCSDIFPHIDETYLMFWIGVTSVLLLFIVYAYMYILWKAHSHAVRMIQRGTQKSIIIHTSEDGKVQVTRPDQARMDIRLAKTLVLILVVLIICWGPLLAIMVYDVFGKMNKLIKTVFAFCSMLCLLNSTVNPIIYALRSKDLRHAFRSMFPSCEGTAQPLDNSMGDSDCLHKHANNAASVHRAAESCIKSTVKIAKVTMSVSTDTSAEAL

Row | Molecule | fraction of compound in the brain tissue [1] | effect on acute food intake (C57BL/6 mice [5]) | effect on intracellular cAMP level in CHO-hCB2 cells (human CB2R [8]) | effect of compound alone on body temperature (C57BL/6 mice [9]) | effect on WIN 55,212-2-induced hypothermia (C57BL/6 mice [9]) | effect on food intake of DIO mice (DIO C57BL/6 mice) | effect on fasting blood glucose and insulin levels (DIO C57BL/6 mice; DIO mice) | effect on serum triglyceride and total cholesterol (DIO C57BL/6 mice) | onset of statistically significant body weight difference (DIO C57BL/6 mice) | effect on body weight of DIO mice (DIO C57BL/6 mice; TXX-522 5 or 10 mg/kg/day) | anorexia in DIO mice and rats (DIO mice and rats) | also measured
1 | (5-(4-chlorophenyl)-1-(2, 4-dichlorophenyl)-4-methyl-1H-pyrazol-3-yl) (piperidin-1-yl) methanone [TXX-522] | 2% | did not affect acute food consumption | neither TXX-522 nor SR141716A affected | did not affect the body temperature | did not block | no anorexia | dramatically decreased | lowered both serum triglyceride and total cholesterol levels | from 2 weeks | dose-dependently decreased | – | Kp (brain to plasma distribution ratio, steady state) ([1]; 2.5 mg/kg intravenous infusion): 0.02; steady state concentration in brain [1, 11]: 528.9 ± 1.6 ng/mL; steady state concentration in plasma [1, 11]: 23323.0 ± 267.8 ng/mL; reversal of WIN 55,212-2-induced inhibition of forskolin-stimulated cAMP accumulation (human CB1R [2]; WIN 1 μmol/L, forskolin 0.1 μmol/L): dose-dependently reversed; maximum effect on cAMP (human CB1R [2]; at 10 μmol/L with forskolin plus WIN): equivalent to that induced by forskolin alone; effect of compound alone on forskolin-induced cAMP level (inverse agonism) (human CB1R [2]; up to 10 μmol/L, data not shown): no further increase; IC50 (human CB2R [3]): > 10 µM; IC50 (human CB1R [4]; EGFP-CB1_U2OS cells, WIN 55,212-2 1 μmol/L, read-out: IC50 CB1R, antagonism of WIN 55,212-2-induced internalization): 0.0103 ± 0.00608 µM; CB2R/CB1R selectivity (internalization IC50 ratio) (human CB1R [4]; EGFP-CB1_U2OS vs EGFP-CB2_U2OS cells): >968; effect on body weight and fat mass (DIO Kunming mice): significantly reduced body weight and fat mass; effect on elevation and oscillation of [Ca2+]i elicited by WIN 55,212-2 (rat hippocampal neurons): blocked; IC50 (human CB1R [6]; CHO-hCB1R cells, radioligand [3H]-CP 55,940 or [3H]-SR141716A, read-out: IC50, CB1R competitive binding): 0.17 µM; Ki (human CB1R [6]; CHO-hCB1R cells, radioligand [3H]-CP 55,940 or [3H]-SR141716A, read-out: Ki, CB1R competitive binding): 0.15 µM; selectivity ratio (CB1R over CB2R, binding) (human CB1R [6]; from radioligand binding values): 176; IC50 (human CB2R [7]): > 30 µM; effect on insulin resistance and hyperinsulinemia (DIO C57BL/6 mice; 5 mg/kg): ameliorated the insulin resistance and hyperinsulinemia more than the same dose of SR141716A did; adverse effects / apparent signs of toxicity (DIO C57BL/6 mice; DIO mice, 4 weeks, TXX-522 5 or 10 mg/kg/day): no adverse effects; weight loss and abdominal fat decrease by the end of the study (DIO C57BL/6 mice; chronic treatment, 5 and 10 mg/kg, compared with SR141716A): comparable efficacy to that of SR141716A; oral glucose tolerance testing (DIO C57BL/6 mice; treatment day 23, 5 mg/kg): ameliorated glucose intolerance more than the same dose of SR141716A did
2 | Cc1c(C(=O)c2cccc3ccccc23)c2cccc3c2n1[C@H](CN1CCOCC1)CO3 [WIN 55,212-2, reference compound] | – | – | – | notably decreased the body temperature | – | – | – | – | – | – | – | –
3 | CC(C)[C@H](N=C(NS(=O)(=O)c1ccc(Cl)cc1)N1C[C@H](c2ccccc2)C(c2ccc(Cl)cc2)=N1)C(N)=O [JD-5037] | – | – | – | – | – | – | – | – | – | – | induced anorexia | brain to plasma distribution ratio (Kp) [10]: < 1
4 | Cc1c(C(=O)NN2CCCCC2)nn(-c2ccc(Cl)cc2Cl)c1-c1ccc(Cl)cc1 [SR141716A, reference compound] | > 60% | significantly inhibited food intake | neither TXX-522 nor SR141716A affected | – | reversed | reduced food intake | dramatically decreased | notably reduced hypertriglyceridemia | from day 4 onward | significant reduction | – | Kp at 40 min ([1]; Sprague-Dawley, brain and plasma, 2.5 mg/kg intravenous infusion, read-out: Kp (brain to plasma distribution ratio, steady state)): 1.67
5 | CCCCCCc1nc(-c2ccc(Cl)cc2)n(-c2ccc(Cl)cc2Cl)n1 [LH-21] | – | – | – | – | – | – | – | – | – | – | induced anorexia | –

From PMC5633609, “Novel Peripherally Restricted Cannabinoid 1 Receptor Selective Antagonist TXX-522 with Prominent Weight-Loss Efficacy in Diet Induced Obese Mice” (Frontiers in Pharmacology, 2017)
